Test system: 945468-187-T-J2-PDC spheroids viability
Test: Anticancer human tumor 945468-187-T-J2-PDC patient-derived rectal carcinoma cell line growth inhibition [PI3K]
Settings: spheroids with HUVEC and MSC; for IC50: curve of first compound; for viability, T/C: stronger effect = lower value
Outline: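 High-throughput combination screen: PI3K inhibitors crossed with targeted small molecules on complex spheroids of tumor cells, HUVEC and MSCs at 37 degrees C, 5% CO2. Top concentration was at or near clinical Cmax (otherwise 10 microM), with half-log decrements.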

[1] = second compound 0.00316 µM, first compound 0.0316 µM
[2] = second compound 0.00316 µM, first compound 0.1 µM
[3] = second compound 0.00316 µM, first compound 0.316 µM
[4] = second compound 0.00316 µM, first compound 1 µM
[5] = second compound 0.00316 µM, first compound 3.16 µM
[6] = second compound 0.00316 µM, first compound 10 µM
[7] = second compound 0.01 µM, first compound 0.0316 µM
[8] = second compound 0.01 µM, first compound 0.1 µM
[9] = second compound 0.01 µM, first compound 0.316 µM
[10] = second compound 0.01 µM, first compound 1 µM
[11] = second compound 0.01 µM, first compound 3.16 µM
[12] = second compound 0.01 µM, first compound 10 µM
[13] = second compound 0.0316 µM, first compound 0.0316 µM
[14] = second compound 0.0316 µM, first compound 0.1 µM
[15] = second compound 0.0316 µM, first compound 0.316 µM
[16] = second compound 0.0316 µM, first compound 1 µM
[17] = second compound 0.0316 µM, first compound 3.16 µM
[18] = second compound 0.0316 µM, first compound 10 µM
[19] = second compound 0.1 µM, first compound 0.0316 µM
[20] = second compound 0.1 µM, first compound 0.1 µM
[21] = second compound 0.1 µM, first compound 0.316 µM
[22] = second compound 0.1 µM, first compound 1 µM
[23] = second compound 0.1 µM, first compound 3.16 µM
[24] = second compound 0.1 µM, first compound 10 µM
[25] = second compound 0.316 µM, first compound 0.0316 µM
[26] = second compound 0.316 µM, first compound 0.1 µM
[27] = second compound 0.316 µM, first compound 0.316 µM
[28] = second compound 0.316 µM, first compound 1 µM
[29] = second compound 0.316 µM, first compound 3.16 µM
[30] = second compound 0.316 µM, first compound 10 µM
[31] = second compound 1 µM, first compound 0.0316 µM
[32] = second compound 1 µM, first compound 0.1 µM
[33] = second compound 1 µM, first compound 0.316 µM
[34] = second compound 1 µM, first compound 1 µM
[35] = second compound 1 µM, first compound 3.16 µM
[36] = second compound 1 µM, first compound 10 µM
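Also: spheroids exposed to compounds for seven days before reading.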

C=CC(=O)N1CCN(c2nc(=O)n(-c3c(C)ccnc3C(C)C)c3nc(-c4c(O)cccc4F)c(F)cc23)C(C)C1 (centres undefined) + CC(Nc1ccc2c(c1)OCCn1cc(N3C(=O)OCC3C(F)F)nc1-2)C(N)=O
IC50 (second compound 0.00316 µM): > 10 µM
IC50 (second compound 0.01 µM): > 10 µM
IC50 (second compound 0.0316 µM): > 10 µM
IC50 (second compound 0.1 µM): > 10 µM
IC50 (second compound 0.316 µM): > 10 µM
IC50 (second compound 1 µM): > 10 µM
viability, T/C [1]: 117%
viability, T/C [2]: 108%
viability, T/C [3]: 114%
viability, T/C [4]: 85.1%
viability, T/C [5]: 101%
viability, T/C [6]: 101%
viability, T/C [7]: 166%
viability, T/C [8]: 98%
viability, T/C [9]: 101%
viability, T/C [10]: 120%
viability, T/C [11]: 111%
viability, T/C [12]: 123%
viability, T/C [13]: 124%
viability, T/C [14]: 117%
viability, T/C [15]: 103%
viability, T/C [16]: 116%
viability, T/C [17]: 91.5%
viability, T/C [18]: 83.6%
viability, T/C [19]: 127%
viability, T/C [20]: 88.1%
viability, T/C [21]: 87.7%
viability, T/C [22]: 98.4%
viability, T/C [23]: 96.3%
viability, T/C [24]: 111%
viability, T/C [25]: 101%
viability, T/C [26]: 101%
viability, T/C [27]: 79.7%
viability, T/C [28]: 110%
viability, T/C [29]: 95.3%
viability, T/C [30]: 80.1%
viability, T/C [31]: 89.2%
viability, T/C [32]: 98.1%
viability, T/C [33]: 81.8%
viability, T/C [34]: 83.4%
viability, T/C [35]: 81.9%
viability, T/C [36]: 83.7%

CC(Cn1ccc(-c2ccc(C#N)c(Cl)c2)n1)NC(=O)c1cc(C(C)O)[nH]n1 (centres undefined) + CC(Nc1ccc2c(c1)OCCn1cc(N3C(=O)OCC3C(F)F)nc1-2)C(N)=O
IC50 (second compound 0.00316 µM): > 10 µM
IC50 (second compound 0.01 µM): > 10 µM
IC50 (second compound 0.0316 µM): > 10 µM
IC50 (second compound 0.1 µM): > 10 µM
IC50 (second compound 0.316 µM): > 10 µM
IC50 (second compound 1 µM): > 10 µM
viability, T/C [1]: 98.9%
viability, T/C [2]: 105%
viability, T/C [3]: 107%
viability, T/C [4]: 75.7%
viability, T/C [5]: 106%
viability, T/C [6]: 110%
viability, T/C [7]: 108%
viability, T/C [8]: 85.8%
viability, T/C [9]: 90.5%
viability, T/C [10]: 96.2%
viability, T/C [11]: 111%
viability, T/C [12]: 93.6%
viability, T/C [13]: 100%
viability, T/C [14]: 82%
viability, T/C [15]: 88%
viability, T/C [16]: 92%
viability, T/C [17]: 91.1%
viability, T/C [18]: 103%
viability, T/C [19]: 86.2%
viability, T/C [20]: 82%
viability, T/C [21]: 99.1%
viability, T/C [22]: 80.8%
viability, T/C [23]: 101%
viability, T/C [24]: 81.7%
viability, T/C [25]: 85.2%
viability, T/C [26]: 73.2%
viability, T/C [27]: 95.2%
viability, T/C [28]: 91.4%
viability, T/C [29]: 82.7%
viability, T/C [30]: 82.8%
viability, T/C [31]: 76.2%
viability, T/C [32]: 74.8%
viability, T/C [33]: 68.9%
viability, T/C [34]: 63.6%
viability, T/C [35]: 72.3%
viability, T/C [36]: 71.4%
